Legend:
Type in all cases: cell-based
[1] = test system: PC-3; test: Drug combination assay, PC-3; conditions: inhibitor + compound 19
Description: (§1) Preliminary cytotoxic screenings for each drug used in drug combination assays were performed to determine their cytotoxic dose range. […] Eight concentrations were established by 1:3 serial dilutions of the single drugs and their combinations with the splicing modulators. All drug concentrations were evaluated in triplicate in 96-well cell culture plates. Assays of individual drugs and drug combinations were run on the same tissue culture plate. Cell viability was determined using the CellTiter-Glo reagent. Drug interactions, in terms of synergism, additive effect, or antagonism, were based on the drugs' Combination Index (CI) (Chou et al., Adv. Enzyme Regul. 1984, 22, 27).
(§2) Luminescence data obtained from the cell viability determinations were formatted per the requirements of the analytical software (viability data range: >0 and <1). The formatted data were analyzed with the software CalcuSyn 2.1 (Biosoft, Cambridge, UK), which provides quantitative CI values for the drug interaction analyses (see ranges in Supplementary Table S2). […] Therefore, in these two cases the drug interaction was evaluated by comparing the IC50 value of Sudemycin with that of the IC50 values resulting from the serial dilutions of the splicing modulator combined with a constant dose of the non-toxic drug.

[2] = test system: JeKo-1; test: Drug combination assay, JeKo-1; conditions: inhibitor + compound 19
Description: as §1, §2

[3] = test system: Sk-N-AS; test: Drug combination assay, Sk-N-AS neuroblastoma; conditions: Sk-N-AS; inhibitor + compound 19
Description: as §1, with “reagent.” for “reagent. Drug interactions, in terms of synergism, additive effect, or antagonism, were based on the drugs' Combination Index (CI) (Chou et al., Adv. Enzyme Regul. 1984, 22, 27).”
(§3) Luminescence data obtained from the cell viability determinations were formatted per the requirements of the analytical software (viability data range: >0 and <1). The formatted data were analyzed with the software CalcuSyn 2.1 (Biosoft, Cambridge, UK), which provides quantitative CI values for the drug interaction analyses (see ranges in Supplementary Table S2).

[4] = test system: HeLa; test: Drug combination assay, HeLa; conditions: HeLa; inhibitor + compound 19
Description: as §1, §2

[5] = test system: SK-MEL-2; test: Drug combination assay, SK-MEL-2
Description: as §1, with “reagent.” for “reagent. Drug interactions, in terms of synergism, additive effect, or antagonism, were based on the drugs' Combination Index (CI) (Chou et al., Adv. Enzyme Regul. 1984, 22, 27).”
as §3

[6] = test system: cell lines investigated; test: Drug combination assays, cell line not stated
Description: as §1, with “reagent.” for “reagent. Drug interactions, in terms of synergism, additive effect, or antagonism, were based on the drugs' Combination Index (CI) (Chou et al., Adv. Enzyme Regul. 1984, 22, 27).”
as §3

[7] = test system: WiDr; test: Drug combination assay, WiDr; conditions: inhibitor + compound 19
Description: as §1, §2

## CO[C@H]1C[C@@H]2CC[C@@H](C)[C@@](O)(O2)C(=O)C(=O)N2CCCC[C@H]2C(=O)O[C@H]([C@H](C)C[C@@H]2CC[C@@H](OC(=O)C(C)(CO)CO)[C@H](OC)C2)CC(=O)[C@H](C)/C=C(\C)[C@@H](O)[C@@H](OC)C(=O)[C@H](C)C[C@H](C)/C=C/C=C/C=C/1C [Temsirolimus]
[1]
  CI of 19 + inhibitor: 0.57
[2]
  CI of 19 + inhibitor: 0.37
[3]
  CI of 19 + inhibitor: 0.58
[4]
  CI of 19 + inhibitor: 0.35
[5]; Combination Index at ED50, CalcuSyn 2.1, listed drug + compound 19
  CI in SK-MEL-2 with compound 19: 0.68
[5]; SK-MEL-2, inhibitor + compound 19
  CI of 19 + inhibitor: 0.68
[5]; listed drug combined with compound 19, Ineffective = drug IC50 much higher than 1 μM
  Interaction Type: Synergism (0.3-0.7)
[6]
  drug interaction with compound 20: demonstrated synergy
[7]
  CI of 19 + inhibitor: 0.44
